For one series, the system named is L. tropica promastigotes. The series can be described thus: Antileishmanial activity on L. tropica promastigotes (MTT). Type of series: cell-based. The procedure: (§1) Promastigote stage of L. infantum (MHOM/TN/80/IPT1, kindly provided by Dr. M. Gramiccia and Dr. T. Di Muccio, ISS, Roma) and L. tropica (MHOM/SY/2012/ISS3130) were cultured in RPMI 1640 medium (EuroClone) supplemented with 15% heat-inactivated fetal calf serum (EuroClone, Milan, Italy), 20 mM HEPES, and 2 mM L-glutamine at 23 °C. The MTT (3-[4.5-dimethylthiazol-2-yl]-2.5-diphenyltetrazolium bromide) method was used to estimate the 50% inhibitory concentration (IC50), with some modifications. Compounds were dissolved in DMSO and then diluted with medium to achieve the required concentrations. Test compounds were placed in 96 wells round bottom microplates and seven serial dilutions made. Amphotericin B was used as the reference antileishmanial drug. Parasites were diluted in complete medium to 5 × 10^6 parasites/mL and 100 μL of the suspension was seeded into the plates and incubated at 23 °C for 72 h. Then 20 μL of MTT solution (5 mg/mL) was added into each well, after 3 h the plates were centrifuged, the supernatants discarded and the resulting pellets dissolved in 100 μL of lysing buffer consisting of 20% (w/v) of a solution of SDS (Sigma), 40% of N,N-dimethylformamide (Merck) in H2O. The absorbance of the obtained solutions was measured at a wavelength of 550 nm with a reference at 650 nm with a microplate spectrophotometer (Synergy 4-Biotek, Milan, Italy) and analyzed with the Gen5® software for data processing.
(§2) The results are expressed as IC50, the dose of compound that is necessary to inhibit cell growth by 50%; each IC50 value is the mean ± standard deviation of at least three separate experiments performed in duplicate.

For a further series, the system named is BMDM. The series can be described thus: Cytotoxicity on BMDM (MTT). Type of series: cell-based, mouse. Particulars: 72 h, read-out: Healthy Cell Lines IC50, BMDM. Here is the method:
(§3) Cytotoxicity was evaluated on human microvascular endothelial cells (HMEC-1, provided by the Centers for Disease Control, Atlanta, GA, USA), on immortalized mouse C57Bl/6 bone marrow derived macrophages (BMDM) from wild type lineage (generated in the laboratories of Drs. Douglas Golenbock and Kate Fitzgerald, University of Massachusetts, Worcester, MA, USA) and on a human acute monocytic leukaemia cell line (THP-1).
(§4) HMEC-1 were maintained in MCDB 131 medium (Invitrogen, Milan, Italy) supplemented with 10% fetal calf serum (HyClone), 10 ng/mL of epidermal growth factor, 1 μg/mL of hydrocortisone, 2 mM glutamine and 20 mM HEPES buffer, at 37 °C in 5% CO2. BMDM were maintained in DMEM (Euroclone) medium supplemented with 10% fetal bovine serum (HyClone, Celbio, Milan, Italy), 2 mM glutamine, and 25 mM of HEPES buffer solution (Euroclone). THP-1 were maintained in RPMI supplemented with 10% heat-inactivated FCS, 50 µM 2-mercaptoethanol, 10 µM sodium pyruvate, 20 mM HEPES, and 2 mM glutamine. In order to achieve differentiation into macrophages, cells were treated with 10 ng/mL phorbol myristate acetate (PMA) for 72 h.
(§5) For the cytotoxicity assay, cells were seeded in 96 well flat bottom tissue culture clusters (Costar, New York, NY, USA) at the following concentrations: HMEC 10^5 cell/mL, BMDM at 10^6 cell/mL, THP1 at 5 × 10^5 cell/mL. After 24 h, cells were treated with serial dilutions of test compounds in a final volume of 200 µL/well. Cell proliferation was evaluated after 72 h using the MTT assay.
(§6) The absorbances were measured with a microplate spectrophotometer (Synergy 4-Biotek) at a test wavelength of 550 nm and a reference wavelength of 650 nm. The results are expressed as IC50 as the concentration inhibiting 50% of cell growth. Each IC50 value is the mean and standard deviation of at least three separate experiments performed in duplicate.

The subject of the next series is THP-1. Briefly: Cytotoxicity on THP-1 (MTT). The series is classed as cell-based, human. Particulars: read-out: Healthy Cell Lines IC50, THP-1. The procedure:
as §3, §4, §5, §6

In series [1] the test system is L. infantum promastigotes. The series can be described thus: Antileishmanial activity on L. infantum promastigotes (MTT). The series is classed as cell-based. The procedure: as §1, §2
For the next series, the target named is LbHsp90 (Leishmania braziliensis, UniProt A4HL70). The series can be described thus: In vitro inhibition of the ATPase activity of LbHsp90 (Malachite Green Phosphate Assay). Type of series: biochemical. Particulars: 7 μM LbHsp90, 27 °C, 60 min. The source says: To evaluate in vitro the modulatory activity of CE, PR and CE caboxamides, a full-length recombinant Hsp90 from L. braziliensis (LbHsp90) was produced in E. coli BL21 DE3 harboring the pET28a_LbHsp90 coding for the C-terminal His-tagged target chaperone (genbank number: XP_001567804.1, full sequence is reported in Appendix B). Pratically, the plasmid pET28a_LbHsp90, kindly donated by professor J.C. Borges, was transformed in E. coli BL21 DE3 using the TransformAid Bacterial Transformation Kit (Thermo Fisher, Waltham, MA, USA). Subsequently, the obtained transformants were grown overnight in LB medium containing 30 μg mL^−1 kanamycin (LBkan30) and then inoculated in 1 L SB kan30 medium (Yeast extract 30 g L^−1, Tryptone 20 g L^−1, NaCl 10 g L^−1) at 37 °C and 220 rpm. When the OD600 reached 0.5–1, gene expression was induced by the addition of 2 mL of 1 M IPTG solution in water and the culture was shifted at 30 °C for 24 h. After cell harvesting by centrifugation (5000 rpm for 30 min), the cell pellet was resuspended in 20 mL of wash buffer (20 mM HEPES buffer, pH 7.0, 500 mM NaCl, 20 mM imidazole) and recombinant E. coli BL21DE3 cells were disrupted by ultrasonication. LbHsp90 was subsequently purified using a Nickel Sepharose 6 Fast Flow agarose resin (Ni-NTA) (GE Healthcare, Milan, Italy) as follows. Soluble protein fraction was separated from cell debris by centrifugation (10,000 rpm for 30min) after cell ultrasonication, and clear lysates were incubated with the Ni-NTA resin for 90 min at 4 °C under mild shaking and loaded onto a glass column (10 × 110 mm). The resin was then washed with 10mL of wash buffer and His-tagged LbHsp90 was eluted using a 3 step gradient (10 mL washing buffer containing 100, 200, and 300 mM imidazole, respectively) and dialyzed against 20 mM HEPES buffer (20 mM, pH 7.5), at 4 °C overnight. The protein content was measured using the Bio-Rad Protein Assay (Hercules, CA, USA) according to the Bradford method and the protein purity was verified by SDS-PAGE analysis (10% T, 2.6% C). It is worth noting that to avoid interferences with the assays described below, proteins were purified and conserved in HEPES buffer (20 mM, pH 7.5) in place of the standard PB-buffer. Reported data are the mean of two experiments run in duplicate.
Modulatory activity toward the ATPase cycle of LbHsp90 was determined using a Malachite Green Phosphate Assay Kit (Catalog Number MAK307, Sigma-Aldrich®, St. Louis, MO, USA). Analyses were run in a 96-well plate directly following the quantitative formation of a green complex between Malachite Green, molybdate, and free orthophosphate (Pi) produced by ATP hydrolysis catalyzed by the chaperone. Color formation from the reaction was measured on a plate reader at 620 nm. Briefly, the IC50 of CE and its derivatives were extrapolated from a set of dose-response curves obtained by calculating the amount of Pi produced by LbHsp90 in the presence of different compounds concentrations.
Reactions were run in HEPES buffer (20 mM, pH 7.5) containing 3 mM MgCl2 and 50 mM KCl in the presence of different compounds concentrations ([…]), LbHsp90 (7 μM) and ATP (25 mM) at 27 °C for 60 min. OD620 was measured 30 min after Malachite Green reactants addition.
LbHsp90 native activity was measured by conducting the reaction in the presence of just LbHsp90 and ATP and extrapolating the concentration of Pi obtained.
Three sets of control experiments, (1) ATP background hydrolysis, (2) compounds-related interferences and (3) protein-related background coloration, were run as follow: • (1) ATP (25 mM) incubated at 27 °C for 60 min • (2) Compounds (different concentrations) incubated with ATP (25 mM) at 27 °C for 60 min • (3) LbHsp90 (7 μM) at 27 °C for 60 min
The in vitro performances of CE, PR and the carboxamides 1–11 (Figure 4) as potential inhibitors of the Leishmania braziliensis Hsp90 were investigated using Sigma-Aldrich® Malachite Green Phosphate Assay Kit. […]

The test system of another series is HMEC-1. Briefly: Cytotoxicity on HMEC-1 (MTT). The note with it: 72 h, MTT, read-out: Healthy Cell Lines IC50, HMEC-1. Type of series: cell-based, human. Here is the method:
as §3, §4, §5, §6

Where [2] appears, read: Homo sapiens, THP-1, PMA-differentiated, 72 h, MTT.
[3] abbreviates: Leishmania tropica, 72 h, 23 °C, MTT, read-out: Leishmania Promastigotes IC50, L. tropica.
Setting [4] is: 72 h, 23 °C, MTT; read-out: Leishmania Promastigotes IC50, L. tropica.

Read-outs that look alike come from different tables or passages of the source.

LbHsp90, sequence (A4HL70 entry or part of it): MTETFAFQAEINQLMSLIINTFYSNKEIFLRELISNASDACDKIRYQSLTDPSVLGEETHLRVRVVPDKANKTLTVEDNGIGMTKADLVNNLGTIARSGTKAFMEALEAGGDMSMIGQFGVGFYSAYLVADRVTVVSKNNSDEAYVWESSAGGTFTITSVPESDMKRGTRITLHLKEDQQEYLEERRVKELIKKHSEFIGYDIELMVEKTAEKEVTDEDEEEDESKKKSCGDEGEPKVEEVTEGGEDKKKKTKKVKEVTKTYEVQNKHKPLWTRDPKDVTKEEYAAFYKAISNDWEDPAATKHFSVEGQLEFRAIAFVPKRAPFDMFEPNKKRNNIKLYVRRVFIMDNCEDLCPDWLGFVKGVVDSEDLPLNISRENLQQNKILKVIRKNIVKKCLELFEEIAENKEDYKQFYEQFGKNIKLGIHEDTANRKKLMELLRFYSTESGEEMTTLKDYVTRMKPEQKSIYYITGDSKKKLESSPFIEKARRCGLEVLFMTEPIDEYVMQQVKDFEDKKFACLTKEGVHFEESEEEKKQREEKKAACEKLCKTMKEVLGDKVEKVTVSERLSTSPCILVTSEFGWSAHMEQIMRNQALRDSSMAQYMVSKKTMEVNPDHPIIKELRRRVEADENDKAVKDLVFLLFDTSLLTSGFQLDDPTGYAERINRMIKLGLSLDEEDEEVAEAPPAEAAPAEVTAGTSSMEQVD

Regarding `COC(=O)[C@]1(C)CC[C@]2(C)CC[C@]3(C)C4=CC=C5C(=CC(=O)C(O)=C5C)[C@]4(C)CC[C@@]3(C)[C@@H]2C1` [PR, pristimerin, reference compound], the IC50 – broadly, the point on the concentration scale where inhibition reaches its midpoint – was 240 ± 40 nM in the series with L. tropica promastigotes (Leishmania tropica, 72 h, read-out: Leishmania Promastigotes IC50, L. tropica); 1270 ± 90 nM in the series with BMDM (Mus musculus, BMDM); 1100 ± 350 nM with THP-1 (Homo sapiens, THP-1, 72 h); 260 ± 20 nM in series [1] (Leishmania infantum, 72 h, read-out: Leishmania Promastigotes IC50, L. infantum).

For `CC1=C(O)C(=O)C=C2C1=CC=C1[C@@]2(C)CC[C@@]2(C)[C@@H]3C[C@](C)(C(=O)NCCCN4CCCCC4)CC[C@]3(C)CC[C@]12C` [compound 2, (2R,4aS,6aS,12bR,14aS,14bR)-10-hydroxy-2,4a,6a,9,12b,14a-hexamethyl-11-oxo-N-(3-(piperidin-1-yl)propyl)-1,2,3,4,4a,5,6,6a,11,12b,13,14,14a,14b-tetradecahydropicene-2-carboxamide], the IC50 in the series with L. tropica promastigotes (Leishmania tropica; 72 h, 23 °C, MTT; read-out: Leishmania Promastigotes IC50, L. tropica) was 210 ± 40 nM; in the series with THP-1 (setting [2]), 1780 ± 480 nM; against LbHsp90, over 125000 nM; in series [1] (Leishmania infantum; 72 h, 23 °C, MTT; read-out: Leishmania Promastigotes IC50, L. infantum) it was 260 ± 60 nM.

Take `CC1=C(O)C(=O)C=C2C1=CC=C1[C@@]2(C)CC[C@@]2(C)[C@@H]3C[C@](C)(C(=O)NCCC45CCCN4CCC5)CC[C@]3(C)CC[C@]12C` [compound 4, (2R,4aS,6aS,12bR,14aS,14bR)-N-(2-(hexahydro-1H-pyrrolizin-7a-yl)ethyl)-10-hydroxy-2,4a,6a,9,12b,14a-hexamethyl-11-oxo-1,2,3,4,4a,5,6,6a,11,12b,13,14,14a,14b-tetradecahydropicene-2-carboxamide]: the melting point (in general, the temperature, or range, at which the solid turns liquid) lay in the range of 235.7 to 237 °C. For the same compound, in the series on L. tropica promastigotes (setting [3]), the IC50 is 200 ± 40 nM. In addition, the IC50 in the series on BMDM (Mus musculus, BMDM, MTT) turned out to be 2590 ± 710 nM. Moreover, the IC50 in the series with THP-1 (setting [2]) came out at 1890 ± 430 nM. On LbHsp90, this compound returned an IC50 of 48000 ± 3000 nM. Moreover, in series [1] (Leishmania infantum, 72 h, 23 °C, MTT, read-out: Leishmania Promastigotes IC50, L. infantum), the IC50 came out at 250 ± 80 nM. In addition, in the series with HMEC-1 (Homo sapiens, HMEC-1), the IC50 worked out at 350 ± 160 nM.

Regarding `CC1=C(O)C(=O)C=C2C1=CC=C1[C@@]2(C)CC[C@@]2(C)[C@@H]3C[C@](C)(C(=O)NCSS(C)(=O)=O)CC[C@]3(C)CC[C@]12C` [compound 8, S-(((2R,4aS,6aS,12bR,14aS,14bR)-10-hydroxy-2,4a,6a,9,12b,14a-hexamethyl-11-oxo-1,2,3,4,4a,5,6,6a,11,12b,13,14,14a,14b-tetradecahydropicene-2-carboxamido)methyl) methanesulfonothioate], the IC50 is 3440 ± 1120 nM with L. tropica promastigotes (setting [4]); 2000 to 4000 nM with L. tropica promastigotes (setting [3]); 13900 ± 2780 nM in the series on BMDM (Mus musculus, BMDM, MTT); 2510 ± 870 nM in the series on THP-1 (setting [2]); 67000 ± 3000 nM against LbHsp90; 3030 ± 10 nM in the series with HMEC-1 (Homo sapiens, HMEC-1).

For “(6bS,8aS,11R,12aR,12bS,14aR)-3-hydroxy-4,6b,8a,11,12b,14a-hexamethyl-11-(((((2R,3R,4R,5S,6R)-2,4,5-trihydroxy-6-(hydroxymethyl)tetrahydro-2H-pyran-3-yl)amino)oxy)carbonyl)-7,8,8a,9,10,11,12,12a,12b,13,14,14a-dodecahydropicen-2(6bH)-one [compound 11]”, the IC50 was 15200 ± 2710 nM with L. tropica promastigotes (setting [4]); over 15900 nM with BMDM (MTT); over 15900 nM in the series on THP-1 (PMA-differentiated, 72 h, MTT); 47000 ± 5000 nM at LbHsp90; 14400 ± 1960 nM in series [1] (72 h, 23 °C, MTT; read-out: Leishmania Promastigotes IC50, L. infantum); over 14200 nM in the series with HMEC-1.

For the origin of these results see article PMC7824787, “Design, Synthesis and In Vitro Investigation of Novel Basic Celastrol Carboxamides as Bio-Inspired Leishmanicidal Agents Endowed with Inhibitory Activity against Leishmania Hsp90” (Biomolecules, 2021).
